Values quoted from earlier work in patent publication US9238611B2, “Process for separating aryl carboxylic acids” (Reliance Industries Limited, priority 2012, dated 2016).

Settings: per one milligram of the terephthalate salt

## COc1ccc2c3c1O[C@H]1C(=O)CC[C@@]4(O)[C@@H](C2)N(C)CC[C@]314.COc1ccc2c3c1O[C@H]1C(=O)CC[C@@]4(O)[C@@H](C2)N(C)CC[C@]314.O=C(O)c1ccc(C(=O)O)cc1 [terephthalas oxycodonae]
  amount of hydrochloridum oxycodonae pharmacologically equivalent to one milligram: 1.13 mg
